“And” between values parts separate entries of the source, which are not always exact repeats. Identical values can stand only once.

For the assay, the system named is mute-2 seedlings expressing MUTEpro::MUTE-GFP, MUTEpro::MUTEE162A_E163A-GFP or MUTEpro::MUTER133A_R134A-GFP. The experiment in a line: Stomidazolone resistance of mute-2 seedlings expressing engineered MUTE-GFP. Type of assay: in vivo, Arabidopsis. The protocol:
Arabidopsis accession Columbia (Col-0) was used as wild-type. […] Their genotype and transcript reduction were confirmed. The presence of transgenes/mutant alleles were confirmed by genotyping. For liquid culture with Stomidazolone (AYSJ929, compound 3), the analogs (AYSJ1059 (compound 5) and AYSJ1061 (compound 6)), degraded compound lzx103 (compound 4), and SIM3* (compound 7), all compounds were dissolved in dimethyl sulfoxide (DMSO, Molecular biology grade, Fujifilm Wako, Japan 046-21981), Col-0 seeds were sown in 96-well plates (TL5003; True Line) containing 95 μL of 1/2 MS media containing 0.5% sucrose with rotary shaking at 140 rpm under continuous light at 22 °C. Five μL of compounds were dissolved in DMSO at 10 mM and diluted with liquid 1/2 MS media to 1 mM and added on 1-day-old seedlings (final concentration, 50 μM). Seedlings were incubated for 8 days, and at day 9 seedling abaxial cotyledons were observed through confocal microscopy. For liquid culture of scrm-D_S343 and scrm-D_S423, 1/2 MS liquid media without sucrose was used. For the solid culture, 0, 20, 50 or 100 μM Stomidazolone were solidified with low-melting agarose (5805S, PrimeGelTM Agarose LMT 1-20 K, TAKARA Bio). Briefly, 1/2 MS salt, 0.5% sucrose, and 0.8% low melting agarose were mixed in water and autoclaved. After cooling the medium at around 30 °C, Stomidazolone (500x, dissolved in DMSO) was added and poured into 90 mm petri dishes (Asnol Petri Dish JP φ90 x 15 mm, 3-1491-01, AS ONE). Col-0 seeds were sown on Stomidazolone-containing 1/2 MS agarose media and grown under continuous light for 9 days.
The following constructs for transgenic plants were generated in this study: MUTEpro::MUTE-GFP (pAH11), MUTEpro::MUTEE162AE163A-GFP (pHS133), MUTEpro::MUTER133AR134A-GFP (pHS134). The original MUTEpro::MUTE-GFP construct (pLJP155) was generated via a different cloning strategy with different antibiotics selection. We therefore re-generated the wild-type Three-way Gateway version of MUTEpro::MUTE-GFP (pAH11) as a control. MUTE genomic coding construct without stop codon (pAR205) and MUTE promoter construct (pAR202) were subjected to the Gateway reaction with R4pGWB504[56]. The wild-type MUTE-GFP lines with the identical R4pGWB504 backbone enable a proper comparison of phenotypic complementation. The mutant versions of MUTE constructs were generated in the same way after site-directed mutagenesis using Q5 Site-directed mutagenesis kit (NEB) and subjected to the Three-Way Gateway reaction after sequence confirmation. The constructs were then transformed into the Agrobacterium strain GV3101 and floral dipped into mute-2/+ plants. To construct CaMV35S::H2B-mScarlet-I3/pPZP211 (DKv1400), 35S promoter (35Sp::RFP-CenH3 with DKp665-DKp1254)[57], H2B-(SGGGG)2 linker (from DKv1200[58] with DKp2412-DKp2599), mScarlet-I3 (from codon optimized synthetic DNA for A. thaliana), Nos terminator (from DKv1200 with DKp1251-DKp2598) were amplified using KOD one polymerase (TOYOBO). The PCR products were assembled into BamHI/EcoRI-digested pPZP211[59] using the NEBuilder HiFi DNA Assembly (NEB). For detailed lists of oligo DNA and plasmid information, see Tables S5 and S6, respectively.
For quantitative analysis of the abaxial leaf epidermis, confocal images were taken on the days after germination as indicated in the Figure legends. Preparation of images was done as described previously[32],[70]. For counting epidermal cell types, stomatal density, stomatal precursor cells (meristemoids), total stomata-lineage cells (stomata and meristemoids) were calculated by counting cell types in an area of 0.4 mm^2 (0.63 mm × 0.63 mm) and plotted as per mm^2. A series of Z-stack confocal images was obtained to obtain images covering the epidermis and capturing GFP/YFP signal from the reporter lines. The area and the number of epidermal cells were quantified by using FIJI-ImageJ. Statistical analyses were performed using R ver. 4.0.2. […]

[1] abbreviates: line AH11 Ln5, 20 μM Stomidazolone, cotyledon abaxial epidermis, individual seedlings.
[2] abbreviates: line HS133 Ln26, 20 μM Stomidazolone, cotyledon abaxial epidermis, individual seedlings.
[3] abbreviates: line HS134 Ln26, 20 μM Stomidazolone, cotyledon abaxial epidermis, individual seedlings.
Where [4] appears, read: transgenic line AH11 Ln25, cotyledon abaxial epidermis, 20 μM Stomidazolone, individual seedlings.
[5] abbreviates: transgenic line HS133 Ln19, cotyledon abaxial epidermis, 20 μM Stomidazolone, individual seedlings.
Setting [6] is: transgenic line HS134 Ln23, cotyledon abaxial epidermis, 20 μM Stomidazolone, individual seedlings.

As to `O=C1C(c2ccccc2)=NC(NS(=O)(=O)c2ccccc2)(c2ccccc2)N1S(=O)(=O)c1ccccc1` (centres unmarked) [Stomidazolone], the “effect on numbers of stomata and meristemoids (in words)” value (20 μM, eight days, MUTEpro::MUTEE162A_E163A-GFP and MUTEpro::MUTER133A_R134A-GFP in mute-2) was “did not significantly affect the numbers of stomata and meristemoids”. In addition, the “effect on number of stomata (in words)” value (20 μM, eight days, control MUTEpro::MUTE-GFP mute-2) is “significantly reduced the number of stomata”. Besides, the Meristemoid density by setting is: under setting [1], 0 per mm2 and 2 per mm2 and 5 per mm2; under setting [2], 2 per mm2 and 0 per mm2 and 5 per mm2; under setting [3], 0 per mm2 and 7 per mm2 and 29 per mm2 and 5 per mm2; under setting [4], 0 per mm2 and 5 per mm2 and 2 per mm2; under setting [5], 0 per mm2 and 5 per mm2 and 2 per mm2 and 17 per mm2; under setting [6], 0 per mm2 and 5 per mm2. Besides, the “Stomata Total density” value is 165 per mm2 and 160 per mm2 and 190 per mm2 and 197 per mm2 and 136 per mm2 and 163 per mm2 and 180 per mm2 under setting [1]; 279 per mm2 and 170 per mm2 and 177 per mm2 and 226 per mm2 and 425 per mm2 and 199 per mm2 under setting [2]. The “total (stomata and meristemoids) density” value under setting [1] was 165 per mm2 and 163 per mm2 and 192 per mm2 and 199 per mm2 and 141 per mm2 and 182 per mm2; the “total (stomata and meristemoids) density” value under setting [2] is 282 per mm2 and 170 per mm2 and 180 per mm2 and 177 per mm2 and 226 per mm2 and 425 per mm2 and 182 per mm2 and 202 per mm2; the “total (stomata and meristemoids) density” value under setting [3] is 279 per mm2 and 316 per mm2 and 197 per mm2 and 224 per mm2 and 272 per mm2 and 294 per mm2 and 367 per mm2 and 309 per mm2; the “total (stomata and meristemoids) density” value under setting [4] was 197 per mm2 and 221 per mm2 and 253 per mm2 and 287 per mm2 and 219 per mm2 and 216 per mm2 and 182 per mm2 and 226 per mm2; the “total (stomata and meristemoids) density” value under setting [5] was 267 per mm2 and 442 per mm2 and 321 per mm2 and 255 per mm2 and 209 per mm2 and 228 per mm2 and 440 per mm2 and 311 per mm2; the “total (stomata and meristemoids) density” value under setting [6] is 345 per mm2 and 221 per mm2 and 185 per mm2 and 267 per mm2 and 479 per mm2 and 316 per mm2 and 211 per mm2 and 199 per mm2. For the same compound, the Stomata density under setting [3] was 279 per mm2 and 309 per mm2 and 190 per mm2 and 194 per mm2 and 272 per mm2 and 294 per mm2 and 367 per mm2 and 304 per mm2. Moreover, the stomatal density is, setting by setting: under setting [4], 197 per mm2 and 216 per mm2 and 250 per mm2 and 287 per mm2 and 219 per mm2 and 182 per mm2 and 226 per mm2; under setting [5], 267 per mm2 and 442 per mm2 and 316 per mm2 and 250 per mm2 and 209 per mm2 and 224 per mm2 and 437 per mm2 and 294 per mm2. Under setting [6], the “stomatal density (Stomata Total)” value is 345 per mm2 and 221 per mm2 and 180 per mm2 and 267 per mm2 and 479 per mm2 and 316 per mm2 and 207 per mm2 and 199 per mm2.

The record behind these values is article PMC11500415, “Chemical inhibition of stomatal differentiation by perturbation of the master-regulatory bHLH heterodimer via an ACT-Like domain” (Nature Communications, 2024).
